Measurements published in US20260159512A1, “BCAT2 INHIBITORS” (AGIOS PHARMACEUTICALS, INC., priority 2021, published 2026).

Tests used:
BCAT2 [1] = biological target: T1, BCAT2 (Homo sapiens, UniProt O15382); experiment: BCAT2 in vitro cell inhibition using engineered A549 cells (KMV cell assay, 13C6-KMV by LC-MS/MS); format: cell-based; parameters: The result was an engineered A549 cell line that expressed endogenous BCAT2; endogenous in cells; host or cells: A549 cells with MUT and BCAT1 knocked out by CRISPR/CAS9; key to BCAT2 Cell Inhibition: A: less than or equal to 0.100 μM; B: greater than 0.100 and less than or equal to 0.500 μM; C: greater than 0.500 and less than or equal to 1.000 μM; d: greater than 1.000 μM; E: no fit; settings: average where tested multiple times
T1 sequence (O15382 28-392): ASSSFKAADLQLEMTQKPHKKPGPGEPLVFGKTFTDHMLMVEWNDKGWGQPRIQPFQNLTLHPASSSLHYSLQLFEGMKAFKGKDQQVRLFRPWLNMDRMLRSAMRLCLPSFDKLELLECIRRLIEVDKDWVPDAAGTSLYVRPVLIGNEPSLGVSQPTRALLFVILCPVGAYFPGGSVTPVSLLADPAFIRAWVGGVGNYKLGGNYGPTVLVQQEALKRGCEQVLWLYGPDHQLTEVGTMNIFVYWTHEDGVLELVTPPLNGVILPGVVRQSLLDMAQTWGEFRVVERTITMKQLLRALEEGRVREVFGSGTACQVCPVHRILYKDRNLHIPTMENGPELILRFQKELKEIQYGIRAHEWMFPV

BCAT2 [2] = biological target: T1, BCAT2; experiment: BCAT2 in vitro enzyme inhibition assay (resazurin/diaphorase-coupled fluorescence); format: biochemical; settings: average where tested multiple times
Procedure, shortened: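 Coupled fluorescence readout: glutamate formed from L-leucine/α-ketoglutarate transamination drives GDH/NAD/diaphorase reduction of resazurin (Ex 540/Em 590). Human BCAT2 was first exposed 1 h at room temperature to compound, top final 100 μM in 3-fold, 10-point series; substrate reaction ran 1 h before SDS quench, in technical duplicate with DMSO max and enzyme-free min controls.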

| SMILES | IC50 (BCAT2 [1]) | IC50 (BCAT2 [2]) | BCAT2 Cell Inhibition (BCAT2 [1]) |
| --- | --- | --- | --- |
| CO[C@@H]1C[C@@H](NC(=O)c2ncc(Cl)s2)C[C@@H](n2c(-c3ccccc3C#N)nc3cnc(-c4nc[nH]n4)cc32)C1 (stereo in doubt) [Example 446, 5-chloro-N-((1S,3R,5R)-3-(2-(2-cyanophenyl)-6-(1H-1,2,4-triazol-3-yl)-1H-imidazo[4,5-c]pyridin-1-yl)-5-methoxycyclohexyl)thiazole-2-carboxamide] | ≤ 100 nM | ≤ 100 nM |  |
| Cn1ccc(-c2nc3cnc(-n4ccnn4)cc3n2[C@@H]2CCC[C@H](NC(=O)c3ncc(C(F)F)s3)C2)n1 [Example 42, 5-(difluoromethyl)-N-((1S,3R)-3-(2-(1-methyl-1H-pyrazol-3-yl)-6-(1H-1,2,3-triazol-1-yl)-1H-imidazo[4,5-c]pyridin-1-yl)cyclohexyl)thiazole-2-carboxamide] |  | > 1000 nM | E |
| O=C(N[C@H]1CCC[C@@H](n2c(CN3CCCCC3)nc3cnc(-n4nccn4)cc32)C1)c1ncc(C(F)F)s1 [Example 95, 5-(difluoromethyl)-N-((1S,3R)-3-(2-(piperidin-1-ylmethyl)-6-(2H-1,2,3-triazol-2-yl)-1H-imidazo[4,5-c]pyridin-1-yl)cyclohexyl)thiazole-2-carboxamide] |  | > 1000 nM | E |
| CC(C)Oc1nc2cnc(-n3ccnn3)cc2n1[C@@H]1CCC[C@H](NC(=O)c2ncc(C(F)F)s2)C1 [Example 97, 5-(difluoromethyl)-N-((1S,3R)-3-(2-isopropoxy-6-(1H-1,2,3-triazol-1-yl)-1H-imidazo[4,5-c]pyridin-1-yl)cyclohexyl)thiazole-2-carboxamide] |  | > 1000 nM | E |
| O=C(O)CCc1ccccc1-c1nc2cnc(-n3nccn3)cc2n1[C@@H]1CCC[C@H](NC(=O)c2ncc(C(F)F)s2)C1 [Example 100, 3-(2-(1-((1R,3S)-3-(5-(difluoromethyl)thiazole-2-carboxamido)cyclohexyl)-6-(2H-1,2,3-triazol-2-yl)-1H-imidazo[4,5-c]pyridin-2-yl)phenyl)propanoic acid] |  | 500 to 1000 nM | E |
| O=C(N[C@@H]1CCC[C@H](n2c(-c3ccccc3F)nc3cnc(-n4nccn4)cc32)[C@H]1O)c1ncc(Cl)s1 [Example 114, 5-chloro-N-((1R,2S,3S)-3-(2-(2-fluorophenyl)-6-(2H-1,2,3-triazol-2-yl)-1H-imidazo[4,5-c]pyridin-1-yl)-2-hydroxycyclohexyl)thiazole-2-carboxamide] | 100 to 500 nM | 100 to 500 nM |  |
| O=C(NN1CCCC(n2c(-c3ccccn3)nc3cnc(-n4nccn4)cc32)C1)c1ncc(C(F)F)s1 (stereo not drawn) [Example 137, 5-(difluoromethyl)-N-(3-(2-(pyridin-2-yl)-6-(2H-1,2,3-triazol-2-yl)-1H-imidazo[4,5-c]pyridin-1-yl)piperidin-1-yl)thiazole-2-carboxamide] |  | > 1000 nM | E |
| CC(C)(Cc1nc2cnc(-n3nccn3)cc2n1[C@@H]1CCC[C@H](NC(=O)c2ccc(Cl)s2)C1)C(=O)O [Example 190, 3-(1-((1R,3S)-3-(5-chlorothiophene-2-carboxamido)cyclohexyl)-6-(2H-1,2,3-triazol-2-yl)-1H-imidazo[4,5-c]pyridin-2-yl)-2,2-dimethylpropanoic acid] |  | > 1000 nM | E |
| O=C(N[C@H]1CCC[C@@H](n2c(Oc3cc[nH]n3)nc3cnc(-c4nc[nH]n4)cc32)C1)c1ncc(Cl)s1 [Example 191, N-((1S,3R)-3-(2-((1H-pyrazol-3-yl)oxy)-6-(1H-1,2,4-triazol-3-yl)-1H-imidazo[4,5-c]pyridin-1-yl)cyclohexyl)-5-chlorothiazole-2-carboxamide] |  | > 1000 nM | E |
| CC(C)Cc1nc2cnc(N3CCC[C@H]3C(C)(C)O)cc2n1[C@@H]1CCC[C@H](NC(=O)c2ncc(Cl)s2)C1 [Example 193, 5-chloro-N-((1S,3R)-3-(6-((S)-2-(2-hydroxypropan-2-yl)pyrrolidin-1-yl)-2-isobutyl-1H-imidazo[4,5-c]pyridin-1-yl)cyclohexyl)thiazole-2-carboxamide] |  | > 1000 nM | E |
| COC[C@H]1CCCN1c1cc2c(cn1)nc(-c1ccccc1F)n2[C@@H]1CCC[C@H](NC(=O)c2ncc(Cl)s2)C1 [Example 198, 5-chloro-N-((1S,3R)-3-(2-(2-fluorophenyl)-6-((R)-2-(methoxymethyl)pyrrolidin-1-yl)-1H-imidazo[4,5-c]pyridin-1-yl)cyclohexyl)thiazole-2-carboxamide] | > 1000 nM | > 1000 nM |  |
| CC(C)Cc1nc2cnc(-c3ccccc3CO)cc2n1[C@@H]1CCC[C@H](NC(=O)c2ncc(Cl)s2)C1 [Example 205, 5-chloro-N-((1S,3R)-3-(6-(2-(hydroxymethyl)phenyl)-2-isobutyl-1H-imidazo[4,5-c]pyridin-1-yl)cyclohexyl)thiazole-2-carboxamide] |  | > 1000 nM | E |
| CC(C)Cc1nc2cnc(-c3cccc(F)n3)cc2n1[C@H]1CCC[C@@H](NC(=O)c2ncc(Cl)s2)[C@@H]1O [Example 208, 5-chloro-N-((1R,2S,3S)-3-(6-(6-fluoropyridin-2-yl)-2-isobutyl-1H-imidazo[4,5-c]pyridin-1-yl)-2-hydroxycyclohexyl)thiazole-2-carboxamide] |  | > 1000 nM | E |
| CC(C)Cc1nc2cnc(-c3ccn(C)n3)cc2n1C1CC(O)CC(NC(=O)c2ncc(Cl)s2)C1 (stereo not drawn) [Example 210, 5-chloro-N-(3-hydroxy-5-(2-isobutyl-6-(1-methyl-1H-pyrazol-3-yl)-1H-imidazo[4,5-c]pyridin-1-yl)cyclohexyl)thiazole-2-carboxamide] | 500 to 1000 nM | ≤ 100 nM |  |
| CC(C)Cc1nc2cnc(-c3cc(C(F)(F)F)n[nH]3)cc2n1[C@H]1CCC[C@@H](NC(=O)c2ncc(Cl)s2)[C@@H]1O [Example 217, 5-chloro-N-((1R,2S,3S)-2-hydroxy-3-(2-isobutyl-6-(3-(trifluoromethyl)-1H-pyrazol-5-yl)-1H-imidazo[4,5-c]pyridin-1-yl)cyclohexyl)thiazole-2-carboxamide] |  | > 1000 nM | E |
| CC(C)Cc1nc2cnc(-c3ccn(C(F)F)n3)cc2n1[C@H]1CCC[C@@H](NC(=O)c2ncc(Cl)s2)[C@@H]1O [Example 229, 5-chloro-N-((1R,2S,3S)-3-(6-(1-(difluoromethyl)-1H-pyrazol-3-yl)-2-isobutyl-1H-imidazo[4,5-c]pyridin-1-yl)-2-hydroxycyclohexyl)thiazole-2-carboxamide] |  | 500 to 1000 nM | E |
| CC(C)Cc1nc2cnc(-n3cc(F)cn3)cc2n1[C@H]1CCC[C@@H](NC(=O)c2ncc(Cl)s2)[C@@H]1O [Example 231, 5-chloro-N-((1R,2S,3S)-3-(6-(4-fluoro-1H-pyrazol-1-yl)-2-isobutyl-1H-imidazo[4,5-c]pyridin-1-yl)-2-hydroxycyclohexyl)thiazole-2-carboxamide] |  | > 1000 nM | E |
| CC(C)Cc1nc2cnc(-c3ccccn3)cc2n1[C@H]1CCC[C@@H](NC(=O)c2ncc(Cl)s2)[C@@H]1O [Example 236, 5-chloro-N-((1R,2S,3S)-2-hydroxy-3-(2-isobutyl-6-(pyridin-2-yl)-1H-imidazo[4,5-c]pyridin-1-yl)cyclohexyl)thiazole-2-carboxamide] |  | 500 to 1000 nM | E |
